In ChEMBL document CHEMBL1772953, “Lupinacidin C, an inhibitor of tumor cell invasion from Micromonospora lupini” (J Nat Prod, 2011):

Experiments:
[1] = Antiinvasive activity against mouse 26-L5 cells after 6 to 8 hrs using hematoxylin/eosin dye by Matrigel assay; type: functional, cell-based
[2] = Cytotoxicity against mouse 26-L5 cells at <0.3 ug/ml after 24 hrs; type: cell-based

| SMILES | IC50 [1] [nM] | Activity [2] |
| --- | --- | --- |
| Cc1c(O)c(CCC(C)C)c2c(c1O)C(=O)c1cccc(O)c1C2=O [LUPINACIDIN A] | 210 | – |
| CCCCc1c(O)c(C)c(O)c2c1C(=O)c1c(O)cccc1C2=O [LUPINACIDIN B] | 920 | – |
| CC[C@H](C)CCc1c(O)c(C)c(O)c2c1C(=O)c1c(O)cccc1C2=O [LUPINACIDIN C] | 540 | Non-toxic |
